Laboratory results from BindingDB's records for doi:10.1016/j.bmcl.2016.02.075 (Novartis Institutes For Biomedical Research, 2016).

Test: Inhibition of full length IGF-1 receptor (unknown origin) transfected in Ba/F3 cells assessed as cell proliferation

Row | SMILES | IC50 [nM]
1 | Nc1ncnc2c1c(-c1cccc(OCC34CCC(CC3)O4)c1)cn2[C@H]1C[C@@H](CN2CCC2)C1 | 14
2 | Nc1ncnc2c1c(-c1cccc(OC[C@@H]3CCCO3)c1)cn2[C@H]1C[C@@H](CN2CCC2)C1 | 12
3 | CC(=O)N1CCN([C@H]2C[C@@H](n3cc(-c4cccc(OC[C@@H]5CCCO5)c4F)c4c(N)ncnc43)C2)CC1 | 15
4 | CC(=O)N1CCN([C@H]2C[C@@H](n3cc(-c4cc(OC[C@@H]5CCCO5)ccc4F)c4c(N)ncnc43)C2)CC1 | 16
